# From ChEMBL document CHEMBL3046109, “A Method for Monitoring the Sensitivity of Botrytis cinerea to Mepanipyrim” (2004)
# Legend:
# Format in all cases: functional
# Botrytis cinerea [1] = assay: Fungicidal activity against anilinopyrimidine-sensitive Botryotinia fuckeliana KU-01 isolated from grape plant assessed as inhibition of mycelial growth at 0.1 mg/l after 4 days; conditions: KU-01, 96 h, read-out: GI
# Botrytis cinerea [2] = assay: Fungicidal activity against anilinopyrimidine-resistant Botryotinia fuckeliana CH15.93 isolated from grape plant assessed as inhibition of mycelial growth at 1 mg/l after 4 days; conditions: CH15.93, 96 h, read-out: GI
# Botrytis cinerea [3] = assay: Fungicidal activity against anilinopyrimidine-resistant Botryotinia fuckeliana CH15.93 isolated from grape plant assessed as inhibition of mycelial growth at 3 mg/l after 4 days; conditions: CH15.93, 96 h, read-out: GI
# Botrytis cinerea [4] = assay: Fungicidal activity against anilinopyrimidine-resistant Botryotinia fuckeliana CH12.92 isolated from grape plant assessed as inhibition of mycelial growth at 3 mg/l after 4 days; conditions: CH12.92, 96 h, read-out: GI
# Botrytis cinerea [5] = assay: Fungicidal activity against anilinopyrimidine-sensitive Botryotinia fuckeliana KU-59 isolated from grape plant assessed as inhibition of mycelial growth at 0.3 mg/l after 4 days; conditions: KU-59, 96 h, read-out: GI
# Botrytis cinerea [6] = assay: Fungicidal activity against anilinopyrimidine-resistant Botryotinia fuckeliana CH15.93 infected in strawberry fruit assessed as inhibition of mycelial growth at 50 mg/l treated 2-3 hr before challenge measured after 5 days; conditions: read-out: GI
# Botrytis cinerea [7] = assay: Fungicidal activity against anilinopyrimidine-resistant Botryotinia fuckeliana CH12.92 infected in strawberry fruit assessed as inhibition of mycelial growth at 200 mg/l treated 2-3 hr before challenge measured after 5 days; conditions: read-out: GI
# Botrytis cinerea [8] = assay: Fungicidal activity against anilinopyrimidine-sensitive Botryotinia fuckeliana KU-01 isolated from grape plant assessed as inhibition of mycelial growth at 100 mg/l after 4 days; conditions: KU-01, 96 h, read-out: GI
# Botrytis cinerea [9] = assay: Fungicidal activity against anilinopyrimidine-resistant Botryotinia fuckeliana CH164.94 infected in strawberry fruit assessed as inhibition of mycelial growth at 200 mg/l treated 2-3 hr before challenge measured after 5 days; conditions: read-out: GI
# Botrytis cinerea [10] = assay: Fungicidal activity against anilinopyrimidine-sensitive Botryotinia fuckeliana KU-01 infected in strawberry fruit assessed as inhibition of mycelial growth at 50 mg/l treated 2-3 hr before challenge measured after 5 days; conditions: read-out: GI
# Botrytis cinerea [11] = assay: Fungicidal activity against anilinopyrimidine-sensitive Botryotinia fuckeliana KU-01 infected in strawberry fruit assessed as inhibition of mycelial growth at 200 mg/l treated 2-3 hr before challenge measured after 5 days; conditions: read-out: GI
# Botrytis cinerea [12] = assay: Fungicidal activity against anilinopyrimidine-sensitive Botryotinia fuckeliana KU-59 isolated from grape plant assessed as inhibition of mycelial growth at 1 mg/l after 4 days; conditions: KU-59, 96 h, read-out: GI
# Botrytis cinerea [13] = assay: Fungicidal activity against anilinopyrimidine-resistant Botryotinia fuckeliana CH12.92 isolated from grape plant assessed as inhibition of mycelial growth at 0.1 mg/l after 4 days; conditions: CH12.92, 96 h, read-out: GI
# Botrytis cinerea [14] = assay: Fungicidal activity against anilinopyrimidine-resistant Botryotinia fuckeliana CH164.94 infected in strawberry fruit assessed as inhibition of mycelial growth at 50 mg/l treated 2-3 hr before challenge measured after 5 days; conditions: read-out: GI
# Botrytis cinerea [15] = assay: Fungicidal activity against anilinopyrimidine-sensitive Botryotinia fuckeliana KU-59 infected in strawberry fruit assessed as inhibition of mycelial growth at 200 mg/l treated 2-3 hr before challenge measured after 5 days; conditions: read-out: GI
# Botrytis cinerea [16] = assay: Fungicidal activity against anilinopyrimidine-sensitive Botryotinia fuckeliana KU-01 isolated from grape plant assessed as inhibition of mycelial growth at 10 mg/l after 4 days; conditions: KU-01, 96 h, read-out: GI
# Botrytis cinerea [17] = assay: Fungicidal activity against anilinopyrimidine-sensitive Botryotinia fuckeliana KU-59 isolated from grape plant assessed as inhibition of mycelial growth at 0.1 mg/l after 4 days; conditions: KU-59, 96 h, read-out: GI
# Botrytis cinerea [18] = assay: Fungicidal activity against anilinopyrimidine-sensitive Botryotinia fuckeliana KU-59 isolated from grape plant assessed as inhibition of mycelial growth at 3 mg/l after 4 days; conditions: KU-59, 96 h, read-out: GI
# Botrytis cinerea [19] = assay: Fungicidal activity against anilinopyrimidine-resistant Botryotinia fuckeliana CH12.92 isolated from grape plant assessed as inhibition of mycelial growth at 1 mg/l after 4 days; conditions: CH12.92, 96 h, read-out: GI
# Botrytis cinerea [20] = assay: Fungicidal activity against anilinopyrimidine-resistant Botryotinia fuckeliana CH164.94 isolated from grape plant assessed as inhibition of mycelial growth at 0.1 mg/l after 4 days; conditions: CH164.94, 96 h, read-out: GI
# Botrytis cinerea [21] = assay: Fungicidal activity against anilinopyrimidine-resistant Botryotinia fuckeliana CH164.94 isolated from grape plant assessed as inhibition of mycelial growth at 0.3 mg/l after 4 days; conditions: CH164.94, 96 h, read-out: GI
# Botrytis cinerea [22] = assay: Fungicidal activity against anilinopyrimidine-resistant Botryotinia fuckeliana CH15.93 isolated from grape plant assessed as inhibition of mycelial growth at 0.1 mg/l after 4 days; conditions: CH15.93, 96 h, read-out: GI
# Botrytis cinerea [23] = assay: Fungicidal activity against anilinopyrimidine-resistant Botryotinia fuckeliana CH15.93 isolated from grape plant assessed as inhibition of mycelial growth at 100 mg/l after 4 days; conditions: CH15.93, 96 h, read-out: GI
# Botrytis cinerea [24] = assay: Fungicidal activity against anilinopyrimidine-resistant Botryotinia fuckeliana CH164.94 isolated from grape plant assessed as inhibition of mycelial growth at 3 mg/l after 4 days; conditions: CH164.94, 96 h, read-out: GI
# Botrytis cinerea [25] = assay: Fungicidal activity against anilinopyrimidine-resistant Botryotinia fuckeliana CH12.92 isolated from grape plant assessed as inhibition of mycelial growth at 0.3 mg/l after 4 days; conditions: CH12.92, 96 h, read-out: GI
structure (smiles),measurement,setting,value
CC#Cc1cc(C)nc(Nc2ccccc2)n1 [MEPANIPYRIM],inhibition of growth at 0.1 µg/mL,Botrytis cinerea [1],75.5%
same,inhibition of growth at 1 µg/mL,Botrytis cinerea [2],34.9%
same,inhibition of growth at 3 µg/mL,Botrytis cinerea [3],65.7%
same,inhibition of growth at 3 µg/mL,Botrytis cinerea [4],60.1%
same,inhibition of growth at 0.3 µg/mL,Botrytis cinerea [5],100%
same,inhibition of growth at 50 µg/mL,Botrytis cinerea [6],0%
same,inhibition of growth at 200 µg/mL,Botrytis cinerea [7],0%
same,inhibition of growth at 100 µg/mL,Botrytis cinerea [8],100%
same,inhibition of growth at 200 µg/mL,Botrytis cinerea [9],0%
same,inhibition of growth at 50 µg/mL,Botrytis cinerea [10],100%
same,inhibition of growth at 200 µg/mL,Botrytis cinerea [11],100%
same,inhibition of growth at 1 µg/mL,Botrytis cinerea [12],100%
same,inhibition of growth at 0.1 µg/mL,Botrytis cinerea [13],0%
same,inhibition of growth at 50 µg/mL,Botrytis cinerea [14],0%
same,inhibition of growth at 200 µg/mL,Botrytis cinerea [15],100%
same,inhibition of growth at 10 µg/mL,Botrytis cinerea [16],100%
same,inhibition of growth at 0.1 µg/mL,Botrytis cinerea [17],86.4%
same,inhibition of growth at 3 µg/mL,Botrytis cinerea [18],100%
same,inhibition of growth at 1 µg/mL,Botrytis cinerea [19],42.6%
same,inhibition of growth at 0.1 µg/mL,Botrytis cinerea [20],0%
same,inhibition of growth at 0.3 µg/mL,Botrytis cinerea [21],0%
same,inhibition of growth at 0.1 µg/mL,Botrytis cinerea [22],0%
same,inhibition of growth at 100 µg/mL,Botrytis cinerea [23],75.4%
same,inhibition of growth at 3 µg/mL,Botrytis cinerea [24],57.9%
same,inhibition of growth at 0.3 µg/mL,Botrytis cinerea [25],19.8%
